Measured values taken from ChEMBL document CHEMBL1687748 (Antimicrob Agents Chemother, 2009).
In brackets after ≈: the same amount, converted by molar mass.

Key:
Assay type in all cases: functional
Bacillus anthracis [1] = assay: Hill constant for compound-sensitive toxin and capsule gene-deficient Bacillus anthracis Sterne in hollow-fiber pharmacodynamic infection model at 250 mg administered as continuous infusion by Bayesian method
Bacillus anthracis [2] = assay: Growth rate constant for compound-sensitive toxin and capsule gene-deficient Bacillus anthracis Sterne in hollow-fiber pharmacodynamic infection model at 150 mg administered as continuous infusion by Bayesian method
Bacillus anthracis [3] = assay: Hill constant for compound-sensitive toxin and capsule gene-deficient Bacillus anthracis Sterne in hollow-fiber pharmacodynamic infection model at 50 mg, qd by Bayesian method
Bacillus anthracis [4] = assay: Kill rate constant for compound-sensitive toxin and capsule gene-deficient Bacillus anthracis Sterne in hollow-fiber pharmacodynamic infection model at 100 mg administered as continuous infusion by Bayesian method
Bacillus anthracis [5] = assay: Total sensitive organism counts of toxin and capsule gene-deficient Bacillus anthracis Sterne in hollow-fiber pharmacodynamic infection model at 250 mg administered as continuous infusion by Bayesian method
Bacillus anthracis [6] = assay: Growth rate constant of spore-phase cells going to vegetative phase in toxin and capsule gene-deficient Bacillus anthracis Sterne in hollow-fiber pharmacodynamic infection model at 50 mg, qd by Bayesian method
Bacillus anthracis [7] = assay: Hill constant for compound-sensitive toxin and capsule gene-deficient Bacillus anthracis Sterne in hollow-fiber pharmacodynamic infection model administered for every 24 hrs
Bacillus anthracis [8] = assay: Total spore counts of toxin and capsule gene-deficient Bacillus anthracis Sterne in hollow-fiber pharmacodynamic infection model at 50 mg, qd by Bayesian method
Bacillus anthracis [9] = assay: Total spore counts of toxin and capsule gene-deficient Bacillus anthracis Sterne in hollow-fiber pharmacodynamic infection model at 100 mg, qd by Bayesian method
Bacillus anthracis [10] = assay: Hill constant for compound-sensitive toxin and capsule gene-deficient Bacillus anthracis Sterne in hollow-fiber pharmacodynamic infection model at 100 mg, qd by Bayesian method
Bacillus anthracis [11] = assay: Total spore counts of toxin and capsule gene-deficient Bacillus anthracis Sterne in hollow-fiber pharmacodynamic infection model at 100 mg administered as continuous infusion by Bayesian method
Bacillus anthracis [12] = assay: Total spore counts of toxin and capsule gene-deficient Bacillus anthracis Sterne in hollow-fiber pharmacodynamic infection model at 150 mg, qd by Bayesian method
Bacillus anthracis [13] = assay: Total sensitive organism counts of toxin and capsule gene-deficient Bacillus anthracis Sterne in hollow-fiber pharmacodynamic infection model at 200 mg administered as continuous infusion by Bayesian method
Bacillus anthracis [14] = assay: Growth rate constant of spore-phase cells going to vegetative phase in toxin and capsule gene-deficient Bacillus anthracis Sterne in hollow-fiber pharmacodynamic infection model at 250 mg administered as continuous infusion by Bayesian method
Bacillus anthracis [15] = assay: Total sensitive organism counts of toxin and capsule gene-deficient Bacillus anthracis Sterne in hollow-fiber pharmacodynamic infection model at 250 mg, qd by Bayesian method
Bacillus anthracis [16] = assay: Growth rate constant of spore-phase cells going to vegetative phase in toxin and capsule gene-deficient Bacillus anthracis Sterne in hollow-fiber pharmacodynamic infection model at 200 mg, qd by Bayesian method
Bacillus anthracis [17] = assay: Growth rate constant of vegetative-phase cells going to spore phase in toxin and capsule gene-deficient Bacillus anthracis Sterne in hollow-fiber pharmacodynamic infection model at 200 mg administered as continuous infusion by Bayesian method
Bacillus anthracis [18] = assay: Antimicrobial activity against toxin and capsule gene-deficient Bacillus anthracis Sterne after 24 hrs by macrobroth dilution method
Bacillus anthracis [19] = assay: Kill rate constant for compound-sensitive toxin and capsule gene-deficient Bacillus anthracis Sterne in hollow-fiber pharmacodynamic infection model at 150 mg, qd by Bayesian method
Bacillus anthracis [20] = assay: Antimicrobial activity against toxin and capsule gene-deficient Bacillus anthracis Sterne after 24 hrs by […] method
Bacillus anthracis [21] = assay: Growth rate constant of vegetative-phase cells going to spore phase in toxin and capsule gene-deficient Bacillus anthracis Sterne in hollow-fiber pharmacodynamic infection model at 100 mg administered as continuous infusion by Bayesian method
Bacillus anthracis [22] = assay: Growth rate constant of spore-phase cells going to vegetative phase in toxin and capsule gene-deficient Bacillus anthracis Sterne in hollow-fiber pharmacodynamic infection model at 100 mg administered as continuous infusion by Bayesian method
Bacillus anthracis [23] = assay: Growth rate constant of vegetative-phase cells going to spore phase in toxin and capsule gene-deficient Bacillus anthracis Sterne in hollow-fiber pharmacodynamic infection model at 200 mg, qd by Bayesian method
Bacillus anthracis [24] = assay: Growth rate constant of vegetative-phase cells going to spore phase in toxin and capsule gene-deficient Bacillus anthracis Sterne in hollow-fiber pharmacodynamic infection model administered for every 24 hrs
Bacillus anthracis [25] = assay: Growth rate constant for compound-sensitive toxin and capsule gene-deficient Bacillus anthracis Sterne in hollow-fiber pharmacodynamic infection model at 100 mg administered as continuous infusion by Bayesian method
Bacillus anthracis [26] = assay: Kill rate constant for compound-sensitive toxin and capsule gene-deficient Bacillus anthracis Sterne in hollow-fiber pharmacodynamic infection model at 150 mg administered as continuous infusion by Bayesian method
Bacillus anthracis [27] = assay: Growth rate constant for compound-sensitive toxin and capsule gene-deficient Bacillus anthracis Sterne in hollow-fiber pharmacodynamic infection model at 150 mg, qd by Bayesian method
Bacillus anthracis [28] = assay: Growth rate constant of spore-phase cells going to vegetative phase in toxin and capsule gene-deficient Bacillus anthracis Sterne in hollow-fiber pharmacodynamic infection model at 200 mg administered as continuous infusion by Bayesian method
Bacillus anthracis [29] = assay: Total spore counts of toxin and capsule gene-deficient Bacillus anthracis Sterne in hollow-fiber pharmacodynamic infection model at 200 mg administered as continuous infusion by Bayesian method
Bacillus anthracis [30] = assay: Total sensitive organism counts of toxin and capsule gene-deficient Bacillus anthracis Sterne in hollow-fiber pharmacodynamic infection model at 50 mg, qd by Bayesian method
Bacillus anthracis [31] = assay: Growth rate constant for compound-sensitive toxin and capsule gene-deficient Bacillus anthracis Sterne in hollow-fiber pharmacodynamic infection model at 200 mg, qd by Bayesian method
Bacillus anthracis [32] = assay: Hill constant for compound-sensitive toxin and capsule gene-deficient Bacillus anthracis Sterne in hollow-fiber pharmacodynamic infection model at 200 mg administered as continuous infusion by Bayesian method
Bacillus anthracis [33] = assay: Growth rate constant of vegetative-phase cells going to spore phase in toxin and capsule gene-deficient Bacillus anthracis Sterne in hollow-fiber pharmacodynamic infection model at 150 mg, qd by Bayesian method
Bacillus anthracis [34] = assay: Total sensitive organism counts of toxin and capsule gene-deficient Bacillus anthracis Sterne in hollow-fiber pharmacodynamic infection model administered as continuous infusion
Bacillus anthracis [35] = assay: Hill constant for compound-sensitive toxin and capsule gene-deficient Bacillus anthracis Sterne in hollow-fiber pharmacodynamic infection model at 200 mg, qd by Bayesian method
Bacillus anthracis [36] = assay: Growth rate constant for compound-sensitive toxin and capsule gene-deficient Bacillus anthracis Sterne in hollow-fiber pharmacodynamic infection model at 200 mg administered as continuous infusion by Bayesian method
Bacillus anthracis [37] = assay: Growth rate constant for compound-sensitive toxin and capsule gene-deficient Bacillus anthracis Sterne in hollow-fiber pharmacodynamic infection model at 50 mg, qd by Bayesian method

Work on `COc1c(N2C[C@@H]3CCCN[C@@H]3C2)c(F)cc2c(=O)c(C(=O)O)cn(C3CC3)c12` [MOXIFLOXACIN] yielded an Activity (Bacillus anthracis [1]) of 30 h⁻¹, an Activity (Bacillus anthracis [2]) of 8.25 h⁻¹ and an Activity (Bacillus anthracis [3]) of 5.84 h⁻¹. It also gave an Activity (Bacillus anthracis [4]) of 8.28 h⁻¹, a CFU/ml (Bacillus anthracis [5]) of 21600000 and an Activity (Bacillus anthracis [6]) of 2.91 h⁻¹. The Activity (Bacillus anthracis [7]) was 29.8 h⁻¹, the CFU/ml (Bacillus anthracis [8]) was 1860000 and the CFU/ml (Bacillus anthracis [9]) was 1900000. For the same compound, the Activity (Bacillus anthracis [10]) was 30 h⁻¹, the CFU/ml (Bacillus anthracis [11]) was 1860000 and the CFU/ml (Bacillus anthracis [12]) was 1890000. It also gave a CFU/ml (Bacillus anthracis [13]) of 20600000, an Activity (Bacillus anthracis [14]) of 7.23 h⁻¹ and a CFU/ml (Bacillus anthracis [15]) of 36000000. For the same compound, the Activity (Bacillus anthracis [16]) was 1.01 h⁻¹, the Activity (Bacillus anthracis [17]) was 5.3 h⁻¹ and the MIC (Bacillus anthracis [18]) was 0.06 µg/mL (≈ 0.149 µM). The Activity (Bacillus anthracis [19]) was 6.58 h⁻¹, the MBC (Bacillus anthracis [20]) was 1 µg/mL (≈ 2.49 µM) and the Activity (Bacillus anthracis [21]) was 1.17 h⁻¹. For the same compound, the Activity (Bacillus anthracis [22]) was 10.1 h⁻¹, the Activity (Bacillus anthracis [23]) was 2.09 h⁻¹ and the Activity (Bacillus anthracis [24]) was 4.96 h⁻¹. For the same compound, the Activity (Bacillus anthracis [25]) was 8.26 h⁻¹, the Activity (Bacillus anthracis [26]) was 8.28 h⁻¹ and the Activity (Bacillus anthracis [27]) was 7.42 h⁻¹. For the same compound, the Activity (Bacillus anthracis [28]) was 6.65 h⁻¹, the CFU/ml (Bacillus anthracis [29]) was 1870000 and the CFU/ml (Bacillus anthracis [30]) was 19600000. For the same compound, the Activity (Bacillus anthracis [31]) was 1.81 h⁻¹, the Activity (Bacillus anthracis [32]) was 30 h⁻¹ and the Activity (Bacillus anthracis [33]) was 0.0657 h⁻¹. It also gave a CFU/ml (Bacillus anthracis [34]) of 38500000, an Activity (Bacillus anthracis [35]) of 1 h⁻¹ and an Activity (Bacillus anthracis [36]) of 8.25 h⁻¹. The Activity (Bacillus anthracis [37]) was 5.14 h⁻¹.
